Assay results reported in patent publication US20220289657A1, “COMPOSITION FOR PREVENTING OR TREATING BACTERIAL INFECTIOUS DISEASE COMPRISING 4-GINGEROL DERIVATIVE COMPOUND AS ACTIVE INGREDIENT” (KOREA UNIVERSITY RESEARCH AND BUSINESS FOUNDATION, SEJONG …, priority 2019, published 2022).
Where two headings read alike, the source gives them in different places. Marks after values point to notes of the source that are not given here.

Columns and labels:
[1] = target: T1, RhlR (Pseudomonas aeruginosa, UniProt P54292); experiment: cell-based; settings: for Relative RhlR activity Antagonism: Table 2; for Relative RhIR Activity (%) Agonism 100 / Relative RhIR Activity (%) Agonism 1000: Table 3; for Relative RhIR Activity (%) Agonism 1000: 1000 (μM); for Relative RhIR activity (%) Agonism / Relative RhIR activity (%) Antagonism: Table 4, concentration not given; for remaining activity at 10 µM: read-out: Relative RhIR Activity (%) Antagonism 10, Table 3; for activity at 100 µM: read-out: Relative RhlR activity Agonism, Table 2, matches the 100 column of Table 3
T1 construct: expressed in transfected cells; host or cells: E. coli sdiA variant co-transformed with pJN105R and pSC11 (RhlA::lacZ)
T1 sequence (P54292 whole entry): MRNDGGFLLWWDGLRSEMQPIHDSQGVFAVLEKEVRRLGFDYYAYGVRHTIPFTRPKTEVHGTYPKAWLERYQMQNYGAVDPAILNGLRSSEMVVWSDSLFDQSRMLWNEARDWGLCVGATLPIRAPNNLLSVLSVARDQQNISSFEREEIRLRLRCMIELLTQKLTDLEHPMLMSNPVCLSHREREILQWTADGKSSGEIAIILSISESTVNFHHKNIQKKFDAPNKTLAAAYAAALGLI
Method: Escherichia coli (E. coli) DH5a includes LuxR homolog SdiA detecting endogenous AHL synthesized by other microbial species, particularly, BHL.
For RhlR reporter strain analysis, the present invention used pJN105R (RhlR expression plasmid), anspSC11 (RhlA::lacZ fusion plasmid) and an sdiA variant co-transformed with the two plasmids. 1% of an overnight-cultured reporter strain (OD 595 nm=1.0) supplemented with 10 μg/mL gentamicin and 50 μg/mL ampicillin was cultured in a Luria-Bertani (LB) medium (Difco, Detroit, Mich., USA) with a positive control or a compound (0-1000 μM) and BHL (0-10 μM) (Sigma-Aldrich) at 37° C. for 2 hours. 0.4% arabinose (Sigma-Aldrich) was reacted with the resulting product at 37° C. for 1.5 hours. β-galactosidase activity was evaluated using a Tropix plus kit (Applied Biosystems, CA, USA), and OD 595 nm and luminescence were measured using a VICTOR x5 multimode plate reader (PerkinElmer, Waltham, Mass., USA). Relative RhlR activity was quantified by measuring luminescence at OD 595 nm. In addition, for LasR reporter strain analysis, the present invention used pJN105L (LasR expression plasmid) and pSC11 (lasI::lacZ fusion plasmid), E. coli DH5a co-transformed with the two plasmids, and OdDHL (Sigma-Aldrich).

[2] = tested on: Pseudomonas aeruginosa; experiment: Static biofilm formation assay (crystal violet); format: cell-based; settings: for activity at 10 µM / activity at 100 µM: Pseudomonas aeruginosa, 24 h, Table 3; for activity at 10 µM: read-out: Relative biological activity (%) Biofilm formation 10; for activity at 100 µM: read-out: Relative biological activity (%) Biofilm formation 100; for Relative biological activity (%) Biofilm formation: Table 4, concentration not given
Method: (§1) Pseudomonas aeruginosa (P. aeruginosa) (OD 595 nm=1.0) was cultured overnight, and diluted in an AB medium (1:20; 300 mM NaCl, 50 mM MgSO4, 0.2% vitamin-free casamino acids, 10 mM potassium phosphate, 1 mM L-arginine, and 1% glucose, pH 7.5) together with a positive control or compound (0100 μM) in a borosilicate bottle. The resulting mixture was incubated without shaking at 37° C. for 24 hours, and to measure growth inhibition activity. OD 595 nm of the suspended culture was measured using a multimode plate reader. Biofilm cells attached to the bottle were washed twice with phosphate-buffered saline (PBS; 137 mM NaCl, 2.7 mM KCl, 10 mM Na2HPO4, and 2 mM KH2PO4, pH 7.2). Afterward, the remaining biofilm cells were stained with 0.1% crystal violet for 10 minutes, and to remove the unbound crystal violet, washed with deionized water. The crystal violet […] to the biofilm cells was eluted with 100% ethanol, and the OD of the eluted ethanol sample was measured at 545 nm using a multimode plate reader.

[3] = tested on: Pseudomonas aeruginosa; experiment: Bacterial growth under static condition (OD 595 nm of suspended culture); format: cell-based; settings: for activity at 10 µM / activity at 100 µM: Pseudomonas aeruginosa, 24 h, Table 3; for activity at 10 µM: read-out: Relative biological activity (%) Bacterial growth 10; for activity at 100 µM: read-out: Relative biological activity (%) Bacterial growth 100; for Relative biological activity (%) Bacterial growth: Table 4, concentration not given
Method: as §1

[4] = tested on: P. aeruginosa; experiment: Rhamnolipid production assay; format: cell-based, Pseudomonas aeruginosa; settings: for activity at 10 µM / activity at 100 µM: Pseudomonas aeruginosa, 24 h, Table 3; for activity at 10 µM: read-out: Relative biological activity (%) Rhamnolipid production 10; for activity at 100 µM: read-out: Relative biological activity (%) Rhamnolipid production 100; for Relative biological activity (%) Rhamnolipid production: Table 4, concentration not given
Method: P. aeruginosa (OD 595 nm=1.0) cultured overnight was inoculated in an AB medium (1:100) with a positive control or compound (0100 μM), and incubated using a shaking culture for 24 hours at 37° C. The cell culture was centrifuged for 5 minutes at 4° C. and 12,000 g. Rhamnolipids were extracted twice by mixing 200 μL of a supernatant and 400 μL of 100% diethyl ether (JUNSEI, Tokyo, Japan). The supernatant was transferred to a new tube and evaporated. A dried sample was eluted with 20 μL of deionized water, and reacted with 180 μL of an Orcinal solution (0.19% Orcinal (Sigma-Aldrich) in 53% H2SO4). The reaction mixture was heated for 30 minutes at 80° C., and cooled for 15 minutes at room temperature. The amount of rhamnolipids was measured at OD 421 nm, and normalized in the cell culture solution at OD 595 nm using a multimode plate reader.

[5] = footnotes not given, 100 μM per Table 3, lower = stronger antagonism
[6] = read-out: Relative RhIR Activity (%) Antagonism 100, Table 3, 100 (μM)
[7] = read-out: Relative RhlR activity Antagonism, Table 2, footnotes not given, 100 μM per Table 3, lower = stronger antagonism

## CCCC(O)CC(=O)/C=C/c1ccc(O)c(OC)c1 (stereo not shown) [Compound 11a, (E)-5-Hydroxy-1-(4-hydroxy-3-methoxyphenyl)oct-1-en-3-one]
[1]; [5]
  Relative RhlR activity Antagonism: 65** %
[1]; 100 (μM)
  Relative RhIR Activity (%) Agonism 100: 4** %
[1]
  Relative RhIR Activity (%) Agonism 1000: 5** %
  Relative RhIR activity (%) Agonism: 4** %
  remaining activity at 10 µM: 73%
[1]; [6]
  remaining activity at 100 µM: 65%
[1]; footnotes not given
  activity at 100 µM: 4%
[1]; [7]
  remaining activity at 100 µM: 65%
[2]; static
  activity at 10 µM: 82%
  activity at 100 µM: 65%
[2]
  Relative biological activity (%) Biofilm formation: 81* %
[3]
  activity at 10 µM: 102%
  activity at 100 µM: 95%
  Relative biological activity (%) Bacterial growth: 101%
[4]
  activity at 10 µM: 73%
  activity at 100 µM: 57%
  Relative biological activity (%) Rhamnolipid production: 67* %

## CCC[C@@H](O)C#Cc1ccc(F)c(F)c1 [Compound 33b, (R)-1-(3,4-Difluorophenyl)hex-1-yn-3-ol]
[1]; 100 (μM)
  Relative RhIR Activity (%) Agonism 100: 3** %
[1]
  Relative RhIR Activity (%) Agonism 1000: 5** %
  remaining activity at 10 µM: 45%
[1]; [6]
  remaining activity at 100 µM: 25%
[1]; footnotes not given
  activity at 100 µM: 3%
[1]; [7]
  remaining activity at 100 µM: 25%
[2]; static
  activity at 10 µM: 74%
  activity at 100 µM: 60%
[3]
  activity at 10 µM: 98%
  activity at 100 µM: 102%
[4]
  activity at 10 µM: 60%
  activity at 100 µM: 48%

## CCCC(O)C#Cc1ccc(F)c(F)c1 (racemic) [Compound 33a, 1-(3,4-Difluorophenyl)hex-1-yn-3-ol]
[1]; 100 (μM)
  Relative RhIR Activity (%) Agonism 100: 3** %
[1]
  Relative RhIR Activity (%) Agonism 1000: 5** %
  remaining activity at 10 µM: 45%
[1]; [6]
  remaining activity at 100 µM: 32%
[1]; footnotes not given
  activity at 100 µM: 3%
[1]; [7]
  remaining activity at 100 µM: 32%
[2]; static
  activity at 10 µM: 73%
  activity at 100 µM: 60%
[3]
  activity at 10 µM: 100%
  activity at 100 µM: 104%
[4]
  activity at 100 µM: 49%

## CCCC(O)CC(=O)/C=C/c1ccc(OC)cc1 (stereo not shown) [Compound 11f, (E)-5-Hydroxy-1-(4-methoxyphenyl)oct-1-en-3-one]
[1]; [5]
  Relative RhlR activity Antagonism: 55** %
[1]
  Relative RhIR activity (%) Agonism: 1** %
  Relative RhIR activity (%) Antagonism: 55** %
[1]; footnotes not given
  activity at 100 µM: 1%
[1]; [7]
  remaining activity at 100 µM: 55%
[2]
  Relative biological activity (%) Biofilm formation: 75* %
[3]
  Relative biological activity (%) Bacterial growth: 102%
[4]
  Relative biological activity (%) Rhamnolipid production: 88%

## CCCCCCCCCC(O)CC(=O)CCc1ccc(O)c(OC)c1 (stereo not shown) [Compound 8, 5-Hydroxy-1-(4-hydroxy-3-methoxyphenyl)tetradecan-3-one]
[1]
  Relative RhIR activity (%) Agonism: 2** %
  Relative RhIR activity (%) Antagonism: 36** %
[1]; footnotes not given
  activity at 100 µM: 2%
[1]; [7]
  remaining activity at 100 µM: 36%
[2]
  Relative biological activity (%) Biofilm formation: 80** %
[3]
  Relative biological activity (%) Bacterial growth: 80** %
[4]
  Relative biological activity (%) Rhamnolipid production: 60* %

## CCCC(O)CC(=O)/C=C/c1cccc(OC)c1 (stereo not shown) [Compound 11c, (E)-5-Hydroxy-1-(3-methoxyphenyl)oct-1-en-3-one]
[1]; 100 (μM)
  Relative RhIR Activity (%) Agonism 100: 2** %
[1]
  Relative RhIR Activity (%) Agonism 1000: 4** %
  Relative RhIR activity (%) Agonism: 2** %
  remaining activity at 10 µM: 89%
[1]; [6]
  remaining activity at 100 µM: 94%
[1]; footnotes not given
  activity at 100 µM: 2%
[1]; [7]
  remaining activity at 100 µM: 94%
[2]; static
  activity at 10 µM: 88%
  activity at 100 µM: 73%
[2]
  Relative biological activity (%) Biofilm formation: 82* %
[3]
  activity at 10 µM: 96%
  activity at 100 µM: 95%
  Relative biological activity (%) Bacterial growth: 101%
[4]
  activity at 10 µM: 91%
  activity at 100 µM: 83%
  Relative biological activity (%) Rhamnolipid production: 95%

## CCCCCC(=O)C#Cc1ccc(O)c(OC)c1 [Compound 21, 1-(4-Hydroxy-3-methoxyphenyl)oct-1-yn-3-one]
[1]; [5]
  Relative RhlR activity Antagonism: 29** %
[1]
  Relative RhIR activity (%) Agonism: 3** %
  Relative RhIR activity (%) Antagonism: 29** %
[1]; footnotes not given
  activity at 100 µM: 3%
[1]; [7]
  remaining activity at 100 µM: 29%
[2]
  Relative biological activity (%) Biofilm formation: 72* %
[3]
  Relative biological activity (%) Bacterial growth: 102%
[4]
  Relative biological activity (%) Rhamnolipid production: 81* %

## CCCCCC(=O)C#Cc1ccc(F)c(F)c1 [Compound 32, 1-(3,4-Difluorophenyl)oct-1-yn-3-one]
[1]; 100 (μM)
  Relative RhIR Activity (%) Agonism 100: 3** %
[1]
  Relative RhIR Activity (%) Agonism 1000: 5** %
  remaining activity at 10 µM: 39%
[1]; [6]
  remaining activity at 100 µM: 17%
[1]; footnotes not given
  activity at 100 µM: 3%
[1]; [7]
  remaining activity at 100 µM: 17%
[2]; static
  activity at 10 µM: 71%
  activity at 100 µM: 56%
[2]; static, 100 μM
  biofilm formation compared with a control (in words): significantly inhibited
[3]; 100 PM [sic] (100 μM)
  effect on cell growth (in words): slightly inhibited
[3]
  activity at 10 µM: 100%
  activity at 100 µM: 88%
[4]
  activity at 10 µM: 60%
  activity at 100 µM: 58%

## CCCCC[C@@H](O)C#Cc1ccc(O)c(OC)c1 [Compound 23b, (R)-4-(3-Hydroxyoct-1-yn-1-yl)-2-methoxyphenol]
[1]; [5]
  Relative RhlR activity Antagonism: 27** %
[1]
  Relative RhIR activity (%) Agonism: 3** %
  Relative RhIR activity (%) Antagonism: 27** %
[1]; footnotes not given
  activity at 100 µM: 3%
[1]; [7]
  remaining activity at 100 µM: 27%
[2]
  Relative biological activity (%) Biofilm formation: 79* %
[3]
  Relative biological activity (%) Bacterial growth: 100%
[4]
  Relative biological activity (%) Rhamnolipid production: 77* %

## CCCCCCCCC(O)CC(=O)CCc1ccc(O)c(OC)c1 (stereo not shown) [Compound 7, 5-Hydroxy-1-(4-hydroxy-3-methoxyphenyl)tridecan-3-one]
[1]
  Relative RhIR activity (%) Agonism: 2** %
  Relative RhIR activity (%) Antagonism: 41** %
[1]; footnotes not given
  activity at 100 µM: 2%
[1]; [7]
  remaining activity at 100 µM: 41%
[2]
  Relative biological activity (%) Biofilm formation: 79** %
[3]
  Relative biological activity (%) Bacterial growth: 89%
[4]
  Relative biological activity (%) Rhamnolipid production: 69* %

## CCCC(O)CC(=O)/C=C/c1ccc(O)cc1 (stereo not shown) [Compound 11d, (E)-5-Hydroxy-1-(4-hydroxyphenyl)oct-1-en-3-one]
[1]; [5]
  Relative RhlR activity Antagonism: 51** %
[1]
  Relative RhIR activity (%) Agonism: 1** %
  Relative RhIR activity (%) Antagonism: 51** %
[1]; footnotes not given
  activity at 100 µM: 1%
[1]; [7]
  remaining activity at 100 µM: 51%
[2]
  Relative biological activity (%) Biofilm formation: 74* %
[3]
  Relative biological activity (%) Bacterial growth: 105%
[4]
  Relative biological activity (%) Rhamnolipid production: 83%

## CCCCCC(O)C#Cc1ccc(O)c(OC)c1 (racemic) [Compound 23a, 4-(3-Hydroxyoct-1-yn-1-yl)-2-methoxyphenol]
[1]; [5]
  Relative RhlR activity Antagonism: 32** %
[1]
  Relative RhIR activity (%) Agonism: 3** %
  Relative RhIR activity (%) Antagonism: 32** %
[1]; footnotes not given
  activity at 100 µM: 3%
[1]; [7]
  remaining activity at 100 µM: 32%
[2]
  Relative biological activity (%) Biofilm formation: 80* %
[3]
  Relative biological activity (%) Bacterial growth: 98%
[4]
  Relative biological activity (%) Rhamnolipid production: 85%
